Laboratory results from ChEMBL document CHEMBL4334507, “Development and Characterization of a Fluorescent Probe for GLS1 and the Application for High-Throughput Screening of Allosteric Inhibitors” (J Med Chem, 2019).
Values after ≈ are worked out from the molar mass of the structure shown.

Columns and labels:
[1] = molecular target: T1, Glutaminase kidney isoform, mitochondrial (Homo sapiens, UniProt O94925); assay: (§1) Binding affinity to human GLS1 expressed in Escherichia coli strain BL21 (DE3)pLysS by SPR assay
T1 sequence (O94925 whole entry): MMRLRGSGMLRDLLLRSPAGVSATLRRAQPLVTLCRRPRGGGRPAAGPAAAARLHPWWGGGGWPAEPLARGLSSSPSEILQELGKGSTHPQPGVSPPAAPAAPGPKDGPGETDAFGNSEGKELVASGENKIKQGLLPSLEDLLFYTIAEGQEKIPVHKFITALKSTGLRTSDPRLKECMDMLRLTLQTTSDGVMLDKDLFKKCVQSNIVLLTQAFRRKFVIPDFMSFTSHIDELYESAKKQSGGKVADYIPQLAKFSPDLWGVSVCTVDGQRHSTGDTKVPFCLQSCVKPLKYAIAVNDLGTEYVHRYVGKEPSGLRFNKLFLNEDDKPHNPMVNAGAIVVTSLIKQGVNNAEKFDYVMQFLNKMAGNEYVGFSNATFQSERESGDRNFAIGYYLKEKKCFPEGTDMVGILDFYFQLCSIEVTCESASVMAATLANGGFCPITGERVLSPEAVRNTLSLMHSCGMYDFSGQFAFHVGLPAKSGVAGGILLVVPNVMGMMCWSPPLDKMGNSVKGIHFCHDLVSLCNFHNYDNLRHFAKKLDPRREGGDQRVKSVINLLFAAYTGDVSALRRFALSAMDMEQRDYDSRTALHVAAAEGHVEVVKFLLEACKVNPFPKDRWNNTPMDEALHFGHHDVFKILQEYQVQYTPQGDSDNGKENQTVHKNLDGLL

[2] = molecular target: T1, Glutaminase kidney isoform, mitochondrial; assay: Inhibition of N-[2-[(3',6'-dihydroxy-1-oxo-spiro[isobenzofuran-3,9'-xanthene]-5-yl)carbamothioylamino]ethyl]-N'-[6-[4-[5-[[2-(2-pyridyl)acetyl]amino]-1,3,4-thiadiazol-2-yl]butyl]pyridazin-3-yl]pentanediamide binding to human GLS1 expressed in Escherichia coli strain BL21 (DE3)pLysS by fluorescence polarization binding assay
[3] = molecular target: T1, Glutaminase kidney isoform, mitochondrial; assay: Inhibition of human GLS1 expressed in Escherichia coli strain BL21 (DE3)pLysS pre-incubated for 10 mins before glutamine addition and measured after 60 mins by bovine liver glutamate dehydrogenase based coupled enzyme assay
[4] = system: HCT-116; assay: Antiproliferative activity against human HCT116 cells assessed as reduction in cell viability incubated for 72 hrs by MTT assay; format: functional, cell-based; details: HCT-116, 72 h
[5] = system: MDA-MB-436; assay: Antiproliferative activity against human MDA-MB-436 cells assessed as reduction in cell viability incubated for 72 hrs by MTT assay; format: functional, cell-based; details: MDA-MB-436, 72 h
[6] = Intrinsic aqueous solubility incubated for 72 hrs by LC-MS based shake-flask method; format: physicochemical; details: buffer
[7] = Ratio of intrinsic aqueous solubility of the test compound to CB839 incubated for 72 hrs by LC-MS based shake-flask method; format: physicochemical; details: buffer
[8] = Distribution coefficient, logD of the compound incubated for 72 hrs by LC-MS based shake-flask method; format: physicochemical; details: octanol/water
[9] = molecular target: T2, Glutaminase kidney isoform, mitochondrial (Homo sapiens) (UniProt O94925)
T2 sequence (whole entry): T1 sequence (O94925 whole entry)
Description: Binding affinity to human GLS1 expressed in Escherichia coli strain BL21 (DE3)pLysS assessed as change in melting temperature by SYPRO orange dye based protein thermal shift assay

[10] = molecular target: T2, Glutaminase kidney isoform, mitochondrial (Homo sapiens); assay: Binding affinity to 1 uM human GLS1 expressed in Escherichia coli strain BL21 (DE3)pLysS by fluorescence polarization binding assay relative to control
[11] = molecular target: T1, Glutaminase kidney isoform, mitochondrial; assay: Binding affinity to human GLS1 expressed in Escherichia coli strain BL21 (DE3)pLysS by fluorescence polarization binding assay
[12] = molecular target: T2, Glutaminase kidney isoform, mitochondrial (Homo sapiens); assay: as §1
[13] = molecular target: Serum albumin (Bos taurus) (UniProt P02769); assay: Binding affinity to BSA by fluorescence polarization binding assay relative to control; details: bovine
Chain of Serum albumin (Bos taurus) (P02769 whole entry, looked up): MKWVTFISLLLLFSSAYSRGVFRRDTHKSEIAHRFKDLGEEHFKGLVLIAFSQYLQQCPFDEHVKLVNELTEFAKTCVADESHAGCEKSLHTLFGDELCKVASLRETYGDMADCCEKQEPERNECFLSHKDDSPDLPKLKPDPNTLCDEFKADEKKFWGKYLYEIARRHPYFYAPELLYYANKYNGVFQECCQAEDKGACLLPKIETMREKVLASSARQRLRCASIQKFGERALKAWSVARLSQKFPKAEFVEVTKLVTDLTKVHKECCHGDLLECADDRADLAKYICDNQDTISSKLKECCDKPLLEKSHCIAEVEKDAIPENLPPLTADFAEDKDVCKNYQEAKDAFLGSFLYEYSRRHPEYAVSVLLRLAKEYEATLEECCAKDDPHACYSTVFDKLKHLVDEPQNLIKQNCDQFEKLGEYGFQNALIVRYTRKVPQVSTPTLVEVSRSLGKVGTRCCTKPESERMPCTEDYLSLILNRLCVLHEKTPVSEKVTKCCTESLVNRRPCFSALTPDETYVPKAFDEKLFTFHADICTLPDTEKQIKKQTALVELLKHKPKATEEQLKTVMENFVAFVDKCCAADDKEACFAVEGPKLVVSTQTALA

Row | Compound | IC50 [2] [µM] | IC50 [3] [µM] | IC50 [4] [µM] | IC50 [5] [µM] | other results
1 | Cc1ccc(Cn2cc(CCC(=O)Nc3nnc(CCCCc4nnc(NC(=O)Cc5ccccc5)s4)s3)nn2)c(C)c1 | 0.5 | 0.28 | 1.01 | 0.43 | Kd [1]: 0.35 µM; ΔTm [9]: 7.7 °C
2 | O=C(CCc1cn(Cc2ccccc2)nn1)Nc1nnc(CCCCc2nnc(NC(=O)Cc3ccccc3)s2)s1 | 0.92 | 0.9 | 4.78 | 1.16 | 
3 | N#Cc1ccc(Cn2cc(CCC(=O)Nc3nnc(CCCCc4nnc(NC(=O)Cc5ccccc5)s4)s3)nn2)cc1 | 0.93 | 0.84 | 5.14 | 2.95 | 
4 | O=C(CCCC(=O)Nc1ccc(CCCCc2nnc(NC(=O)Cc3ccccn3)s2)nn1)NCCNC(=S)Nc1ccc2c(c1)C1(OC2=O)c2ccc(O)cc2Oc2cc(O)ccc21 |  |  |  |  | fold change (FC) [10]: 2; Kd [11]: 0.45 µM; Activity [12]: Dose-dependent effect; Kd [1]: 0.61 µM; Activity [13]: Not Active
5 | Cc1ccc(Cn2cc(CCC(=O)Nc3nnc(CCCCc4nnc(NC(=O)Cc5ccccc5)s4)s3)nn2)cc1 | 0.56 | 0.42 | 1.57 | 1.79 | 
6 | O=C(CCc1cn(Cc2ccc(F)cc2)nn1)Nc1nnc(CCCCc2nnc(NC(=O)Cc3ccccc3)s2)s1 | 1.22 | 1.11 | 1.09 | 0.35 | 
7 | O=C(CCc1cn(Cc2ccc(Cl)cc2)nn1)Nc1nnc(CCCCc2nnc(NC(=O)Cc3ccccc3)s2)s1 | 1.37 | 1.25 | 3.41 | 1.14 | 
8 | O=C(CCc1cn(Cc2ccc(Br)cc2)nn1)Nc1nnc(CCCCc2nnc(NC(=O)Cc3ccccc3)s2)s1 | 1.08 | 0.98 | 1.85 | 4.06 | 
9 | O=C(Cc1ccccc1)Nc1nnc(CCSCCc2nnc(NC(=O)Cc3ccccc3)s2)s1 |  |  | 1.02 | 2.4 | 
10 | O=C(CCc1cn(Cc2ccc([N+](=O)[O-])cc2)nn1)Nc1nnc(CCCCc2nnc(NC(=O)Cc3ccccc3)s2)s1 | 2.75 | 2.5 | 1.05 | 10.7 | 

More lines, in order of falling IC50 [4], values ahead:

Row | IC50 [2] [µM] | IC50 [3] [µM] | IC50 [4] [µM] | IC50 [5] [µM] | Compound | other results
11 | 0.78 | 0.52 | 0.74 | 0.76 | Cc1cccc(C)c1Cn1cc(CCC(=O)Nc2nnc(CCCCc3nnc(NC(=O)Cc4ccccc4)s3)s2)nn1 | 
12 | 0.21 | 0.11 | 0.72 | 0.2 | Cc1ccc(Cn2cc(CCC(=O)Nc3ccc(CCCCc4nnc(NC(=O)Cc5ccccn5)s4)nn3)nn2)c(C)c1 | 
13 | 0.76 | 0.51 | 0.56 | 5.49 | COc1ccc(Cn2cc(CCC(=O)Nc3nnc(CCCCc4nnc(NC(=O)Cc5ccccc5)s4)s3)nn2)cc1 | 
14 | 0.85 | 0.5 | 0.45 | 0.8 | COc1ccc(Cn2cc(CCC(=O)Nc3nnc(CCCCc4nnc(NC(=O)Cc5ccccc5)s4)s3)nn2)cc1OC | 
15 | 0.4 | 0.33 | 0.38 | 0.4 | COc1ccc(Cn2cc(CCC(=O)Nc3ccc(CCCCc4nnc(NC(=O)Cc5ccccn5)s4)nn3)nn2)cc1OC | 
16 | 0.46 | 0.32 | 0.27 | 0.34 | Cc1cccc(C)c1Cn1cc(CCC(=O)Nc2ccc(CCCCc3nnc(NC(=O)Cc4ccccn4)s3)nn2)nn1 | 
17 | 0.39 | 0.3 | 0.25 | 0.31 | O=C(CCc1cn(Cc2ccc(OC(F)(F)F)cc2)nn1)Nc1ccc(CCCCc2nnc(NC(=O)Cc3ccccn3)s2)nn1 | 
18 | 0.19 | 0.15 | 0.23 | 0.63 | COc1ccc(Cn2cc(CCC(=O)Nc3ccc(CCCCc4nnc(NC(=O)Cc5ccccn5)s4)nn3)nn2)cc1 | 
19 | 0.073 | 0.044 | 0.18 | 0.21 | O=C(CCc1cn(Cc2ccc(C(F)(F)F)cc2)nn1)Nc1ccc(CCCCc2nnc(NC(=O)Cc3ccccn3)s2)nn1 | 
20 | 0.041 | 0.027 | 0.15 | 0.18 | Cc1ccc(Cn2cc(CCC(=O)Nc3ccc(CCCCc4nnc(NC(=O)Cc5ccccn5)s4)nn3)nn2)cc1 | Kd [1]: 0.068 µM; solubility thermodynamic at 72 h [6]: 0.0208 mg/mL (≈ 34.9 µM); Ratio [7]: 9; logD at 72 h [8]: 1.29; ΔTm [9]: 16.5 °C
21 |  |  | 0.06 | 0.52 | O=C(Cc1cccc(OC(F)(F)F)c1)Nc1ccc(CCCCc2nnc(NC(=O)Cc3ccccn3)s2)nn1 | logD at 72 h [8]: 1.9
